Test results published in the supplement of paper PMC10307832.

What was measured:
Assay in all cases: relative viability (nuclei count vs DMSO), 5 days (fraction); higher = more cells survive
[1] = test system: A-427
Method in brief: (§1)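 Lung cancer cell lines in 1536-well plates were dosed by pin tool the day after seeding, either with one drug alone or with a fixed anchor-drug dose plus five library-drug doses (not always all listed) in √10 steps. After 5 days, cells were fixed and their nuclei stained in one step (final 0.05% Triton X-100, 1% formaldehyde, 1 ug/ml Hoechst), then counted on 4× images. Relative viability is the nuclei count in treated wells divided by that in vehicle wells. Values are medians of duplicate plates.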

[2] = test system: ABC-1
Method in brief: as §1

[3] = test system: COR-L23
Method in brief: as §1

[4] = test system: EMC-BAC-2
Method in brief: as §1

[5] = test system: HARA
Method in brief: as §1

[6] = test system: HOP-62
Method in brief: as §1

[7] = test system: LK-2
Method in brief: as §1

[8] = test system: LXF-289
Method in brief: as §1

[9] = test system: NCI-H1792
Method in brief: as §1

[10] = test system: NCI-H1793
Method in brief: as §1

[11] = test system: NCI-H1944
Method in brief: as §1

[12] = test system: NCI-H1993
Method in brief: as §1

[13] = test system: NCI-H2009
Method in brief: as §1

[14] = test system: NCI-H2228
Method in brief: as §1

[15] = test system: NCI-H3122
Method in brief: as §1

[16] = test system: NCI-H596
Method in brief: as §1

[17] = test system: NCI-H727
Method in brief: as §1

[18] = test system: PC-3 [JPC-3]
Method in brief: as §1

[19] = test system: SK-LU-1
Method in brief: as §1

[20] = test system: SK-MES-1
Method in brief: as §1

[21] = test system: SW 1573
Method in brief: as §1

Compound: C=C1C(=O)O[C@@H](CCCCCCCC)[C@@H]1C(=O)O [C-75] + C[C@]1(O)C[C@@H](c2nc(-c3ccc4ccc(-c5ccccc5)nc4c3)c3c(N)nccn32)C1 [Linsitinib] (partner 1 µM)
- relative viability ([1]; first compound 0.08 µM): 1.16
- relative viability ([1]; first compound 0.253 µM): 1
- relative viability ([1]; first compound 0.8 µM): 1.06
- relative viability ([1]; first compound 2.53 µM): 1.07
- relative viability ([1]; first compound 8 µM): 1.09
- relative viability ([2]; first compound 0.08 µM): 0.85
- relative viability ([2]; first compound 0.253 µM): 0.854
- relative viability ([2]; first compound 0.8 µM): 0.705
- relative viability ([2]; first compound 2.53 µM): 0.764
- relative viability ([2]; first compound 8 µM): 0.552
- relative viability ([3]; first compound 0.08 µM): 0.935
- relative viability ([3]; first compound 0.253 µM): 0.907
- relative viability ([3]; first compound 0.8 µM): 0.856
- relative viability ([3]; first compound 2.53 µM): 0.632
- relative viability ([3]; first compound 8 µM): 0.909
- relative viability ([4]; first compound 0.08 µM): 0.791
- relative viability ([4]; first compound 0.253 µM): 0.754
- relative viability ([4]; first compound 0.8 µM): 0.831
- relative viability ([4]; first compound 2.53 µM): 0.761
- relative viability ([4]; first compound 8 µM): 0.831
- relative viability ([5]; first compound 0.08 µM): 0.861
- relative viability ([5]; first compound 0.253 µM): 0.954
- relative viability ([5]; first compound 0.8 µM): 0.915
- relative viability ([5]; first compound 8 µM): 0.97
- relative viability ([6]; first compound 0.08 µM): 0.944
- relative viability ([6]; first compound 0.253 µM): 0.894
- relative viability ([6]; first compound 0.8 µM): 0.841
- relative viability ([6]; first compound 2.53 µM): 0.843
- relative viability ([6]; first compound 8 µM): 0.875
- relative viability ([7]; first compound 0.08 µM): 0.416
- relative viability ([7]; first compound 0.253 µM): 0.785
- relative viability ([7]; first compound 0.8 µM): 0.607
- relative viability ([7]; first compound 2.53 µM): 0.514
- relative viability ([7]; first compound 8 µM): 0.369
- relative viability ([8]; first compound 0.08 µM): 0.925
- relative viability ([8]; first compound 0.253 µM): 0.979
- relative viability ([8]; first compound 0.8 µM): 0.953
- relative viability ([8]; first compound 2.53 µM): 0.94
- relative viability ([8]; first compound 8 µM): 0.966
- relative viability ([9]; first compound 0.08 µM): 0.527
- relative viability ([9]; first compound 0.253 µM): 0.486
- relative viability ([9]; first compound 0.8 µM): 0.471
- relative viability ([9]; first compound 2.53 µM): 0.377
- relative viability ([9]; first compound 8 µM): 0.544
- relative viability ([10]; first compound 0.08 µM): 0.775
- relative viability ([10]; first compound 0.253 µM): 1.18
- relative viability ([10]; first compound 0.8 µM): 0.698
- relative viability ([10]; first compound 2.53 µM): 0.658
- relative viability ([10]; first compound 8 µM): 0.942
- relative viability ([11]; first compound 0.08 µM): 1.13
- relative viability ([11]; first compound 0.253 µM): 0.961
- relative viability ([11]; first compound 0.8 µM): 1.26
- relative viability ([11]; first compound 8 µM): 1.19
- relative viability ([12]; first compound 0.08 µM): 0.705
- relative viability ([12]; first compound 0.253 µM): 0.773
- relative viability ([12]; first compound 0.8 µM): 0.751
- relative viability ([12]; first compound 2.53 µM): 0.744
- relative viability ([12]; first compound 8 µM): 0.763
- relative viability ([13]; first compound 0.08 µM): 1.19
- relative viability ([13]; first compound 0.253 µM): 1.09
- relative viability ([13]; first compound 0.8 µM): 1.11
- relative viability ([13]; first compound 2.53 µM): 1.02
- relative viability ([13]; first compound 8 µM): 0.997
- relative viability ([14]; first compound 0.08 µM): 1.03
- relative viability ([14]; first compound 0.253 µM): 1.04
- relative viability ([14]; first compound 0.8 µM): 0.543
- relative viability ([14]; first compound 2.53 µM): 0.594
- relative viability ([14]; first compound 8 µM): 0.66
- relative viability ([15]; first compound 0.08 µM): 1.02
- relative viability ([15]; first compound 0.253 µM): 1.06
- relative viability ([15]; first compound 0.8 µM): 1.04
- relative viability ([15]; first compound 8 µM): 1.1
- relative viability ([16]; first compound 0.08 µM): 1.01
- relative viability ([16]; first compound 0.253 µM): 1.09
- relative viability ([16]; first compound 0.8 µM): 1.01
- relative viability ([16]; first compound 2.53 µM): 0.911
- relative viability ([16]; first compound 8 µM): 1.03
- relative viability ([17]; first compound 0.08 µM): 0.277
- relative viability ([17]; first compound 0.253 µM): 0.614
- relative viability ([17]; first compound 0.8 µM): 0.263
- relative viability ([17]; first compound 2.53 µM): 0.183
- relative viability ([17]; first compound 8 µM): 0.283
- relative viability ([18]; first compound 0.08 µM): 0.939
- relative viability ([18]; first compound 0.253 µM): 0.933
- relative viability ([18]; first compound 0.8 µM): 0.951
- relative viability ([18]; first compound 2.53 µM): 1.02
- relative viability ([18]; first compound 8 µM): 1.09
- relative viability ([19]; first compound 0.08 µM): 1.28
- relative viability ([19]; first compound 0.253 µM): 1.07
- relative viability ([19]; first compound 0.8 µM): 1.05
- relative viability ([19]; first compound 2.53 µM): 0.911
- relative viability ([19]; first compound 8 µM): 0.636
- relative viability ([20]; first compound 0.08 µM): 1.1
- relative viability ([20]; first compound 0.253 µM): 0.935
- relative viability ([20]; first compound 0.8 µM): 1.02
- relative viability ([20]; first compound 8 µM): 1.05
- relative viability ([21]; first compound 0.08 µM): 0.819
- relative viability ([21]; first compound 0.253 µM): 0.962
- relative viability ([21]; first compound 0.8 µM): 0.833
- relative viability ([21]; first compound 2.53 µM): 0.615
- relative viability ([21]; first compound 8 µM): 0.705
